US20240058283A1, “THE MODE OF ACTION OF N-MeDCPA ON TRPC CHANNELS” (West Virginia University Board of Governors on Behalf of …, priority 2022, published 2024)
Read-outs that look alike come from different tables or passages of the source.

Key:
Type in all cases: cell-based
[1] = molecular target: T1, TRPC6 (Homo sapiens, UniProt Q9Y210); assay: OAG-induced Ca2+ entry in Fura2-loaded HEK293 cells expressing TRPC6; conditions: ELP-004 0 to 1 mM for 10 minutes before OAG, FIG. 1D, read-out: IC50, inhibition of OAG-induced Ca2+ entry
T1 construct: expressed in transfected cells
T1 sequence (Q9Y210 1-931): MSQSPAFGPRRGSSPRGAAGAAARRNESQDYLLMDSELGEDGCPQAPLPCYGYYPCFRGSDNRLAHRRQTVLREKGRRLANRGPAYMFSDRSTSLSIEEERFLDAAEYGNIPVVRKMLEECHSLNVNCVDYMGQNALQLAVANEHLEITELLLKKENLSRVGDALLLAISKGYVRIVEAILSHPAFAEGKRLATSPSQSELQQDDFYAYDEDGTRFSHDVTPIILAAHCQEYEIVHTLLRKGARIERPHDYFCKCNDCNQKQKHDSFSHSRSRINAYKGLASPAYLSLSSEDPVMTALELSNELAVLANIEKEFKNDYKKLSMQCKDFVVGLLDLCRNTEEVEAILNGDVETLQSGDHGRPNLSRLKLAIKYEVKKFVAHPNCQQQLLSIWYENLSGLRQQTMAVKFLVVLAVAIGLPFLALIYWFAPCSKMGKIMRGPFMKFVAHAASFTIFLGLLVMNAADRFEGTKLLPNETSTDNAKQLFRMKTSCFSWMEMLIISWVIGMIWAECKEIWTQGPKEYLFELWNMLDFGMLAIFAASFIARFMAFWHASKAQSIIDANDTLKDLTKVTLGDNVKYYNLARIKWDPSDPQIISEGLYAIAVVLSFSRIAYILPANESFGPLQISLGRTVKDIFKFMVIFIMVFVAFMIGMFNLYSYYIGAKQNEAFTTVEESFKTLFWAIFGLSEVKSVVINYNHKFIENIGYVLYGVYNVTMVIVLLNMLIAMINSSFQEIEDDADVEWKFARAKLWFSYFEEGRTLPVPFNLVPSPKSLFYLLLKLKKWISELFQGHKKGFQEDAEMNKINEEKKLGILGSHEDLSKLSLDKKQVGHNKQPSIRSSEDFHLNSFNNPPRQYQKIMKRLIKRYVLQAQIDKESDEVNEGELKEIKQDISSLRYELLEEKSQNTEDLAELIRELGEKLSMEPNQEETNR
Experimental: (§1) Inhibition of DAG-mediated TRPC activation. To determine if ELP-004 (N-MeDCPA) inhibits DAG-induced TRPC activation, HEK293 cells expressing TRPC3, TRPC6 or TRPC7 were loaded with Fura2 and incubated with ELP-004 (0 to 1 mM) for 10 minutes prior to challenging with 1-Oleoyl-2-acetyl-sn-glycerol (OAG), a membrane permeable form of diacylglycerol.
(§2) Cell Culture—HEK293 cells were grown in DMEM with 4.5 g/L glucose supplemented with 10% FBS and 1% Gentamycin (Full DMEM media; Thermo-Fisher Scientific, Waltham, MA) at 37° C. and 5% CO2. […]
(§3) TRPC activity assay—Cells grown on glass coverslips were incubated in a cation-safe buffer (107 mM NaCl, 7.2 mM KCl, 1.2 mM MgCl2, 11.5 mM Glucose, 20 mM HEPES-NaOH, 1 mM CaCl2), pH 7.2) and loaded with Fura2-acetoxymethylester (Fura2-AM; 2 μM) for 30 min at 24° C. as previously described^10,11. […] Ca^2+/Sr^2+ measurements were taken using a Leica DMI 6000B fluorescence microscope controlled by Slidebook software (Intelligent Imaging Innovations, Denver, CO). Fluorescence emission at 505 nm was monitored in response to excitation at alternating 340 nm and 380 nm wavelengths at a frequency of 0.67 Hz; intracellular Ca^2+ measurements are shown at 340/380 nm ratios obtained from groups of 35-45 single cells.

[2] = molecular target: T2, TRPC7 (Homo sapiens, UniProt Q9HCX4); assay: OAG-induced Ca2+ entry in Fura2-loaded HEK293 cells overexpressing TRPC7
T2 construct: expressed in transfected cells; host or cells: HEK293 (transient transfection)
T2 sequence (Q9HCX4 1-862): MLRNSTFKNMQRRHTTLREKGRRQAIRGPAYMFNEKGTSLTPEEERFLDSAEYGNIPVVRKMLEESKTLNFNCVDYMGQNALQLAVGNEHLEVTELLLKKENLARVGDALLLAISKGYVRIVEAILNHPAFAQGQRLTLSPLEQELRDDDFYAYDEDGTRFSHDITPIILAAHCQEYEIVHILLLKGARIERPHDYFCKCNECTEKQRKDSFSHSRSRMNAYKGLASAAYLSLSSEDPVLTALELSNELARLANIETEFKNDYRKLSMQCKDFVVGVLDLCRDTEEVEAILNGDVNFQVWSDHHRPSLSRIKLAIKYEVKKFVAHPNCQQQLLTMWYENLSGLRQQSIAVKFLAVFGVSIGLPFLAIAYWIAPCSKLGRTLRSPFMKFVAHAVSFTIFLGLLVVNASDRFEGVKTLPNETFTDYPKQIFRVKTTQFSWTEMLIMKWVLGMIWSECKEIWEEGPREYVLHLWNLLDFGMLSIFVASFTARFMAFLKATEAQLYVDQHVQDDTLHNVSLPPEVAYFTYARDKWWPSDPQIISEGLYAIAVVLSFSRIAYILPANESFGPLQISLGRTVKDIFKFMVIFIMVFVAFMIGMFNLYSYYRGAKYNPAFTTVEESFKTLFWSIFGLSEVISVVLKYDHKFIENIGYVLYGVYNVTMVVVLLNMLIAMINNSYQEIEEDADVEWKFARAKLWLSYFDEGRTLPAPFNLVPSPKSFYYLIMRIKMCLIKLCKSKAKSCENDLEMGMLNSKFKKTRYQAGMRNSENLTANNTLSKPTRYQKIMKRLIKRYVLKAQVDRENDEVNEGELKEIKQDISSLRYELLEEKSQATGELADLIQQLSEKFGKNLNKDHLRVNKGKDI
Experimental: as §1, §2
as §3, with “cells. […]” for “cells.”

[3] = test system: Mouse splenic monocytes; assay: Osteoclast differentiation of mouse splenic monocytes; conditions: 21 days of culture with RANKL+m-CSF; 100 nM ELP-004
Experimental: ELP-004 blocks TNF-α-induced osteoclast differentiation. Mouse splenic monocytes were induced to differentiate into osteoclasts. Results were obtained of osteoclast cells after 21 days of culture with RANKL+m-CSF alone or with the addition of 100 nM ELP-004. […] Thus, ELP-004 inhibits osteoclastogenesis.

CCC(=O)N(C)c1ccc(Cl)c(Cl)c1 [ELP-004, N-(3,4-dichlorophenyl)-N-methylpropanamide]
IC50 [1]: 1 to 2 µM
IC50 ([2]; FIG. 5, TRPC O/E cells, OAG, Ca2+ present, read-out: TRPC7 IC50): 0.009 µM
IC50 ([2]; HEK293 expressing TRPC7, ELP-004 0 to 1 mM for 10 minutes before OAG, FIG. 1D, read-out: IC50, inhibition of OAG-induced Ca2+ entry): 1 to 2 µM
development of multinucleated osteoclasts [3]: inhibited development of multinucleated osteoclasts
